According to patent US12317891B2, “Protein product capable of immobilizing target and being cleared as required” (SHAANXI NORMAL UNIVERSITY, priority 2020, dated 2025):

System: snails
Experiment: Insect control performance verification: cabbage leaves fed to snails
Assay type: in vivo
Conditions: leaves sprayed with 10 mg/mL suspension; 10 snails per group
Source text: Cabbage leaves each at a size of 5 cm×5 cm were divided into four groups with four cabbage leaves in each group. […] The four groups of leaves were respectively administered to four groups of snails with 10 snails in each group. The consumption rate by the snails for the untreated cabbage leaf group was almost 100%. The consumption rate by the snails for the cabbage leaves simply sprayed with the imidacloprid suspension was about 30%. […] The consumption rate by the snails for the cabbage leaves that were first sprayed with the suspension of the protein product of the present disclosure and then treated with the Vc aqueous solution or the fruit and vegetable detergent was increased to 80%.

Structure (SMILES): O=[N+]([O-])NC1=NCCN1Cc1ccc(Cl)nc1 [imidacloprid]
- consumption rate of cabbage leaves by the snails: about 30%
